Measurements published in patent US9097673B2, “Processes and kits for determining multi-drug resistance of cells” (ENZO LIFE SCIENCES, INC., priority 2010, dated 2015).
“And” between values parts separate entries of the source, which are not always exact repeats. Identical values can stand only once. Like-named read-outs stand apart in the source and are kept apart here.

Columns and labels:
A549 cell line = assay: Dye uptake flow cytometry MDR assay; format: cell-based, human
CHO K1 cell line = assay: Dye uptake flow cytometry MDR assay; format: cell-based, hamster;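 further: flow cytometry of dye-loaded cells, Kolmogorov-Smirnov D value (0 to 1.0) comparing fluorescence with versus without inhibitor, made negative when the uninhibited control was brighter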
HeLa cell line = assay: Dye uptake flow cytometry MDR assay; format: cell-based, human
U-2 OS cells = assay: Multiplexed MDR detection by flow cytometry (dye uptake, with PI); format: cell-based, human; conditions: for F8 + PI, MAF: Fluo-8 AM + PI; for F8, MAF: Fluo-8 AM probe alone; for R4 + PI compens, MAF / R4 + PI, MAF: Rhod-4 AM + PI; for R4 + PI compens, MAF: compensated; for R4 + PI, MAF: uncompensated; for R4, MAF: Rhod-4 AM probe alone;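 on all read-outs here: MAF computed as 100 × (MFI with inhibitor − MFI without) / MFI with inhibitor, after 5 min inhibitor pre-incubation then 30 min dye loading at 37 °C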
[1] = system: U-2 OS cells expressing GFP; assay: as above; format: cell-based, human; conditions: U-2 OS GFP; for R4 + PI compens, MAF / R4 + PI, MAF: Rhod-4 AM + PI; for R4 + PI compens, MAF: compensated; for R4 + PI, MAF: uncompensated; for R4, MAF: Rhod-4 AM probe alone
[2] = A549, dye uptake, average of three representative experiments (Table 6)
[3] = CHO K1, dual probes Rhod-4 AM (FL2) + CMFDA (FL1)
[4] = CHO K1, dye uptake, average of three representative experiments (Table 6)
[5] = CHO K1, triple probes CMFDA (FL1) + Rhod-4 AM (FL2) + Pheophorbide A (FL3)
[6] = HeLa, dye uptake, average of three representative experiments (Table 6)
[7] = A549, dye uptake, average of three independent experiments (Table 10)
[8] = CHO K1, dye uptake, average of three independent experiments (Table 10)
[9] = CHO K1, dual probes Fluo-8 AM (FL1) + Pheophorbide A (FL3)
[10] = CHO K1, dual probes Rhod-4 AM (FL2) + Pheophorbide A (FL3)
[11] = CHO K1, triple probes DiOC2(3) (FL1) + Rhod-4 AM (FL2) + Pheophorbide A (FL3)
[12] = CHO K1, Fluo-8 AM + propidium iodide, uncompensated data
[13] = CHO K1, Fluo-8 AM probe alone, uncompensated data
[14] = CHO K1, Rhod-4 AM + propidium iodide, compensated data
[15] = CHO K1, Rhod-4 AM + propidium iodide, uncompensated data
[16] = CHO K1, Rhod-4 AM probe alone, uncompensated data
[17] = CHO K1, dual probes Rhod-4 AM (FL2) + DiOC2(3) (FL1)

CC(=O)Oc1ccc2c(c1)Oc1cc(OC(C)=O)ccc1C21OC(=O)c2cc(CCl)ccc21 [CMFDA, chloromethylfluorescein diacetate]
D-value, Fumitremorgan C (A549 cell line; [2]): 0.21
D-value, Probenecid (A549 cell line; [2]): 0.29
D-value, Verapamil (A549 cell line; [2]): 0.04
D-values Post Inhibitor Treatment (compared to uninhibited cells), CsA (CHO K1 cell line; [3]): 0.49
D-values Post Inhibitor Treatment (compared to uninhibited cells), FTC (CHO K1 cell line; [3]): 0.06
D-values Post Inhibitor Treatment (compared to uninhibited cells), MK-571 (CHO K1 cell line; [3]): 0.91
D-values Post Inhibitor Treatment (compared to uninhibited cells), Verapamil (CHO K1 cell line; [3]): 0.1
D-value, Fumitremorgan C (CHO K1 cell line; [4]): 0.09
D-value, Probenecid (CHO K1 cell line; [4]): 0.7
D-value, Verapamil (CHO K1 cell line; [4]): 0.19
D-values Post Inhibitor Treatment (compared to uninhibited cells), CsA (CHO K1 cell line; [5]): 0.47
D-values Post Inhibitor Treatment (compared to uninhibited cells), FTC (CHO K1 cell line; [5]): 0.14
D-values Post Inhibitor Treatment (compared to uninhibited cells), MK-571 (CHO K1 cell line; [5]): 0.89
D-values Post Inhibitor Treatment (compared to uninhibited cells), Verapamil (CHO K1 cell line; [5]): 0.10
D-value, Fumitremorgan C (HeLa cell line; [6]): 0.12
D-value, Probenecid (HeLa cell line; [6]): 0.03
D-value, Verapamil (HeLa cell line; [6]): 0

COc1cccc2c1C(=O)c1c(O)c3c(c(O)c1C2=O)C[C@@](O)(C(=O)CO)C[C@@H]3O[C@H]1C[C@H](N)[C@H](O)[C@H](C)O1 [Doxorubicin, doxorubicin]
D-value, Cyclosporine A (A549 cell line; [7]): 0.14
D-value, FTC (A549 cell line; [7]): 0.18
D-value, MK-571 (A549 cell line; [7]): 0.24
D-value, Novobiocin (A549 cell line; [7]): 0.28
D-value, Verapamil (A549 cell line; [7]): 0.06
D-value, Cyclosporine A (CHO K1 cell line; [8]): 0.42
D-value, FTC (CHO K1 cell line; [8]): 0.22
D-value, MK-571 (CHO K1 cell line; [8]): 0.35
D-value, Novobiocin (CHO K1 cell line; [8]): 0.32
D-value, Verapamil (CHO K1 cell line; [8]): 0.27

C=Cc1c(C)c2cc3nc(c4c5[nH]c(cc6nc(cc1[nH]2)C(C)=C6CC)c(C)c5C(=O)[C@@H]4C(=O)OC)[C@@H](CCC(=O)O)[C@@H]3C [Pheophorbide A, pheophorbide A]
D-value, Fumitremorgan C (A549 cell line; [2]): 0.35
D-value, Probenecid (A549 cell line; [2]): 0.16
D-value, Verapamil (A549 cell line; [2]): 0.16
D-values Post Inhibitor Treatment (compared to uninhibited cells), CsA (CHO K1 cell line; [9]): 0.25
D-values Post Inhibitor Treatment (compared to uninhibited cells), FTC (CHO K1 cell line; [9]): 0.33
D-values Post Inhibitor Treatment (compared to uninhibited cells), MK-571 (CHO K1 cell line; [9]): 0.15
D-values Post Inhibitor Treatment (compared to uninhibited cells), Verapamil (CHO K1 cell line; [9]): 0.14
D-values Post Inhibitor Treatment (compared to uninhibited cells), CsA (CHO K1 cell line; [10]): 0.25
D-values Post Inhibitor Treatment (compared to uninhibited cells), FTC (CHO K1 cell line; [10]): 0.34
D-values Post Inhibitor Treatment (compared to uninhibited cells), MK-571 (CHO K1 cell line; [10]): 0.14
D-values Post Inhibitor Treatment (compared to uninhibited cells), Verapamil (CHO K1 cell line; [10]): 0.11
D-value, Fumitremorgan C (CHO K1 cell line; [4]): 0.25
D-value, Probenecid (CHO K1 cell line; [4]): 0.03
D-value, Verapamil (CHO K1 cell line; [4]): 0.02
D-values Post Inhibitor Treatment (compared to uninhibited cells), CsA (CHO K1 cell line; [5]): 0.20
D-values Post Inhibitor Treatment (compared to uninhibited cells), FTC (CHO K1 cell line; [5]): 0.27
D-values Post Inhibitor Treatment (compared to uninhibited cells), MK-571 (CHO K1 cell line; [5]): 0.09
D-values Post Inhibitor Treatment (compared to uninhibited cells), Verapamil (CHO K1 cell line; [5]): 0.18
D-values Post Inhibitor Treatment (compared to uninhibited cells), CsA (CHO K1 cell line; [11]): 0.4
D-values Post Inhibitor Treatment (compared to uninhibited cells), FTC (CHO K1 cell line; [11]): 0.41
D-values Post Inhibitor Treatment (compared to uninhibited cells), MK-571 (CHO K1 cell line; [11]): 0.13
D-values Post Inhibitor Treatment (compared to uninhibited cells), Verapamil (CHO K1 cell line; [11]): 0.17
D-value, Fumitremorgan C (HeLa cell line; [6]): 0
D-value, Probenecid (HeLa cell line; [6]): 0
D-value, Verapamil (HeLa cell line; [6]): 0

O=C1c2c(O)ccc(O)c2C(=O)c2c(NCCNCCO)ccc(NCCNCCO)c21 [Mitoxantrone, mitoxantrone]
D-value, Cyclosporine A (A549 cell line; [7]): 0.27
D-value, FTC (A549 cell line; [7]): 0.28
D-value, MK-571 (A549 cell line; [7]): 0.37
D-value, Novobiocin (A549 cell line; [7]): 0.28
D-value, Verapamil (A549 cell line; [7]): 0.12
D-value, Cyclosporine A (CHO K1 cell line; [8]): 0.34
D-value, FTC (CHO K1 cell line; [8]): 0.21
D-value, MK-571 (CHO K1 cell line; [8]): 0.18
D-value, Novobiocin (CHO K1 cell line; [8]): 0.22
D-value, Verapamil (CHO K1 cell line; [8]): 0.42

COc1ccc2c3c([nH]c2c1)[C@H](C=C(C)C)N1C(=O)[C@@H]2CCCN2C(=O)[C@@H]1C3 [FTC, fumitremorgin C]
F8 + PI, MAF (U-2 OS cells): −6.3
F8, MAF (U-2 OS cells): 5.0
R4 + PI compens, MAF (U-2 OS cells): 12.6
R4 + PI, MAF (U-2 OS cells): −9.3
R4, MAF (U-2 OS cells): 9.9
R4 + PI compens, MAF [1]: 6.2
R4 + PI, MAF [1]: 25.7
R4, MAF [1]: 15.0

COc1ccc(CCN(C)CCCC(C#N)(c2ccc(OC)c(OC)c2)C(C)C)cc1OC (stereo not shown) [Verapamil, verapamil]
F8 + PI, MAF (U-2 OS cells): 33.0
F8, MAF (U-2 OS cells): 63.4
R4 + PI compens, MAF (U-2 OS cells): 54.1
R4 + PI, MAF (U-2 OS cells): 35.8
R4, MAF (U-2 OS cells): 42.5
F8 + PI, D-values (CHO K1 cell line): 0.94
Fluo-8 ™, D (CHO K1 cell line): 0.92
R4 + PI, D-values (CHO K1 cell line): 0.96 and 0.95
Rhod4 ™ (D-values) (CHO K1 cell line): 0.94
R4 + PI compens, MAF [1]: 38.0
R4 + PI, MAF [1]: 41.3
R4, MAF [1]: 30.4

CO[C@@H]1[C@@H](OC(N)=O)[C@@H](O)[C@H](Oc2ccc3c(O)c(NC(=O)c4ccc(O)c(CC=C(C)C)c4)c(=O)oc3c2C)OC1(C)C [Novobiocin, novobiocin]
F8 + PI, MAF (U-2 OS cells): 12.3
F8, MAF (U-2 OS cells): 17.9
R4 + PI compens, MAF (U-2 OS cells): 15.1
R4 + PI, MAF (U-2 OS cells): 10.7
R4, MAF (U-2 OS cells): 18.7
F8 + PI, D-values (CHO K1 cell line; [12]): 0.61
Fluo-8 ™, D (CHO K1 cell line; [13]): 0.54
R4 + PI, D-values (CHO K1 cell line; [14]): 0.66
R4 + PI, D-values (CHO K1 cell line; [15]): 0.7
Rhod4 ™ (D-values) (CHO K1 cell line; [16]): .64
R4 + PI compens, MAF [1]: 2.8
R4 + PI, MAF [1]: 27.9
R4, MAF [1]: 17.9

CN(C)C(=O)CCSC(SCCC(=O)O)c1cccc(/C=C/c2ccc3ccc(Cl)cc3n2)c1 (stereo not shown) [MK-571]
F8 + PI, MAF (U-2 OS cells): 52.9
F8, MAF (U-2 OS cells): 65.4
R4 + PI compens, MAF (U-2 OS cells): 54.5
R4 + PI, MAF (U-2 OS cells): 49.7
R4, MAF (U-2 OS cells): 62.8
F8 + PI, D-values (CHO K1 cell line; [12]): 0.92
Fluo-8 ™, D (CHO K1 cell line; [13]): 0.89
R4 + PI, D-values (CHO K1 cell line; [14]): 0.94
R4 + PI, D-values (CHO K1 cell line; [15]): 0.95
Rhod4 ™ (D-values) (CHO K1 cell line; [16]): .94
R4 + PI compens, MAF [1]: 43.3
R4 + PI, MAF [1]: 51.9
R4, MAF [1]: 49.6

CCCN(CCC)S(=O)(=O)c1ccc(C(=O)O)cc1 [Probenecid, probenecid]
F8 + PI, MAF (U-2 OS cells): 23.1
F8, MAF (U-2 OS cells): 57.5
R4 + PI compens, MAF (U-2 OS cells): 42.4
R4 + PI, MAF (U-2 OS cells): 24.0
R4, MAF (U-2 OS cells): 41.2
R4 + PI compens, MAF [1]: 38.5
R4 + PI, MAF [1]: 47.7
R4, MAF [1]: 34.0

CCN1C(=CC=Cc2oc3ccccc3[n+]2CC)Oc2ccccc21.[I-] [DiOC2(3), 3,3′-diethyloxacarbocyanine iodide]
D-value, Fumitremorgan C (A549 cell line): 0.03
D-value, Probenecid (A549 cell line; [2]): 0
D-value, Verapamil (A549 cell line; [2]): 0.07
D-value, Fumitremorgan C (CHO K1 cell line): 0
D-values Post Inhibitor Treatment (compared to uninhibited cells), CsA (CHO K1 cell line; [17]): 0.94
D-values Post Inhibitor Treatment (compared to uninhibited cells), FTC (CHO K1 cell line; [17]): 0.16
D-values Post Inhibitor Treatment (compared to uninhibited cells), MK-571 (CHO K1 cell line; [17]): 0.13
D-values Post Inhibitor Treatment (compared to uninhibited cells), Verapamil (CHO K1 cell line; [17]): 0.96
D-value, Probenecid (CHO K1 cell line; [4]): 0.01
D-value, Verapamil (CHO K1 cell line; [4]): 0.96
D-values Post Inhibitor Treatment (compared to uninhibited cells), CsA (CHO K1 cell line; [11]): 0.98
D-values Post Inhibitor Treatment (compared to uninhibited cells), FTC (CHO K1 cell line; [11]): 0.11
D-values Post Inhibitor Treatment (compared to uninhibited cells), MK-571 (CHO K1 cell line; [11]): 0.13
D-values Post Inhibitor Treatment (compared to uninhibited cells), Verapamil (CHO K1 cell line; [11]): 0.98
D-value, Fumitremorgan C (HeLa cell line): 0.07
D-value, Probenecid (HeLa cell line; [6]): 0.06
D-value, Verapamil (HeLa cell line; [6]): 0
